For this assay, the target named is PRMT5/MEP50 (Homo sapiens (Human), UniProt O14744). As to the kind of experiment: PRMT5 Biochemical Assay (PRMT5/MEP50 enzyme assay on peptide substrate, 3H-SAM Flashplate). The settings on record: PRMT5 biochemical assay; read-out: Biochemical IC50. An excerpt: S-adenosylmethionine (SAM), S-adenosylhomocysteine (SAH), bicine, KCl, Tween20, dimethylsulfoxide (DMSO), bovine skin gelatin (BSG), and Tris(2-carboxyethyl)phosphine hydrochloride solution (TCEP) were purchased from Sigma-Aldrich at the highest level of purity possible. ^3H-SAM was purchase from American Radiolabeled Chemicals with a specific activity of 80 Ci/mmol. 384-well streptavidin Flashplates were purchased from PerkinElmer.
Chain of PRMT5/MEP50 (O14744 other isoform, or with tags, fused parts or gaps): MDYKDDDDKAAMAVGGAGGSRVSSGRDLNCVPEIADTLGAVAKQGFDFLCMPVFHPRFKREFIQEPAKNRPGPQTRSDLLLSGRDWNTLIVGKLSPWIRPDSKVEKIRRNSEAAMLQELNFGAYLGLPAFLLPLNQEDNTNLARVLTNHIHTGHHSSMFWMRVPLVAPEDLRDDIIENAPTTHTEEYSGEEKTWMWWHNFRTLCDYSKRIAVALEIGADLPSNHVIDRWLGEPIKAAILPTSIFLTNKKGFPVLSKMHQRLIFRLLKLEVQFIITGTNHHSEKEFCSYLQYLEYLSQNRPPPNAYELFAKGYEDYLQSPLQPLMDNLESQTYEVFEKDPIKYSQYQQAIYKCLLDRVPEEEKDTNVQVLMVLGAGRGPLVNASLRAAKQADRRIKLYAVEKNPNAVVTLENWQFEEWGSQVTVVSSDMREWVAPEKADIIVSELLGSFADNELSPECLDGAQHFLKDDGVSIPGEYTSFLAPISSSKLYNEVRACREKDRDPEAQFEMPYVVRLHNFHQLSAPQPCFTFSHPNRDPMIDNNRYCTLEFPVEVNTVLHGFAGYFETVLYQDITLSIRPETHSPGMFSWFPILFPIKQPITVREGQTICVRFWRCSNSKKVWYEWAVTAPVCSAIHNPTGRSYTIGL
Chain of PRMT5/MEP50 (Q9BQA1 other isoform, or with tags, fused parts or gaps partner): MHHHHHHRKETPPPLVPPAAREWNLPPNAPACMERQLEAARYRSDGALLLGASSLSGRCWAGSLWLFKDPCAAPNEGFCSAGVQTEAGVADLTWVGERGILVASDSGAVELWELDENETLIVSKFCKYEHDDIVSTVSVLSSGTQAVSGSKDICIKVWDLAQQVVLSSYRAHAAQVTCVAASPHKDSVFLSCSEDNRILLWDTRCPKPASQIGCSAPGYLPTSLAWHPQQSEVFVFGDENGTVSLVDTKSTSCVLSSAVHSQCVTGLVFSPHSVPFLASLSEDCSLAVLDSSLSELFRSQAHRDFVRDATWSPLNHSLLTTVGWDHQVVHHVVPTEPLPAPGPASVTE
Peptide representative of human histone H4 residues 1-15 was synthesized with a C-terminal linker-affinity tag motif and a C-terminal amide cap by 21st Century Biochemicals. […] The sequence was Ac-[…][K-Biot]-amide (SEQ ID NO.:3).
Full-length human MEP50 (NM_024102) clone was amplified from a human testis cDNA library incorporating a 5′ sequence encoding a 6-histidine tag (MHHHHHH)(SEQ ID NO.:5) fused directly to Arg 2 of MEP50. The amplified genes were sublconed into pENTR/D/TEV (Life Technologies) and subsequently transferred by Gateway™ attL×attR recombination to pDEST8 baculvirus expression vector (Life Technologies).
Recombinant baculovirus and Baculovirus-Infected Insect Cells (BIIC) were generated according to Bac-to-Bac kit instructions (Life Technologies) and Wasilko, 2006, respectively. Protein over-expression was accomplished by infecting exponentially growing Spodoptera frugiperda (SF9) cell culture at 1.2×10^6 cell/ml with a 5000 fold dilution of BIIC stock. Infections were carried out at 27° C. for 72 hours, harvested by centrifugation, and stored at −80° C. for purification.
Flag-PRMT5/6His-MeP50 was eluted with 300 mM Imidazole in the same buffer. […] Reference: Wasilko, D. J. and S. E. Lee: “TIPS: titerless infected-cells preservation and scale-up” Bioprocess J., 5 (2006), pp. 29-32.
General Procedure for PRMT5/MEP50 Enzyme Assays on Peptide Substrates.
The assays were all performed in a buffer consisting of 20 mM Bicine (pH=7.6), 1 mM TCEP, 0.005% BSG, and 0.002% Tween20, prepared on the day of use. Compounds in 100% DMSO (1 ul) were spotted into a polypropylene 384-well V-bottom plates (Greiner) using a Platemate Plus outfitted with a 384-channel head (Thermo Scientific). DMSO (1 ul) was added to Columns 11, 12, 23, 24, rows A-H for the maximum signal control and 1 ul of SAH, a known product and inhibitor of PRMT5/MEP50, was added to columns 11, 12, 23, 24, rows I-P for the minimum signal control. A cocktail (40 ul) containing the PRMT5/MEP50 enzyme and the peptide was added by Multidrop Combi (Thermo-Fisher). The compounds were allowed to incubate with PRMT5/MEP50 for 30 min at 25 degrees Celsius, then a cocktail (10 ul) containing ^3H-SAM was added to initiate the reaction (final volume=51 ul).

Molecules are shown by their SMILES. Where only a bound is given, the exact number is not on record here.

For orientation: IC50 means the midpoint of a concentration-inhibition curve.

Take `O=C(COc1cccc2c1CCCN2Cc1ccccc1)NCC(O)CN1CCc2ccccc2C1` (stereo not shown) [Compound 4]: the IC50 is below 100 nM.
With `CC(Oc1ccccc1)C(=O)NCC(O)CN1CCc2ccccc2C1` (stereo not shown) [Compound 19, N-(3-(3,4-dihydroisoquinolin-2(1H)-yl)-2-hydroxypropyl)-2-phenoxypropanamide], the IC50 was below 100 nM.
Then `COc1cccc(OCC(=O)NCC(O)CN2CCc3ccccc3C2)c1` (stereo not shown) [Compound 20, N-(3-(3,4-dihydroisoquinolin-2(1H)-yl)-2-hydroxypropyl)-2-(3-methoxyphenoxy)acetamide], with below 100 nM.
In the case of `COc1ccccc1OCC(=O)NCC(O)CN1CCc2ccccc2C1` (stereo not shown) [Compound 22] it was below 100 nM; in that of `Cn1ncc2ccc(OCC(=O)NCC(O)CN3CCc4ccccc4C3)cc21` (stereo not shown) [Compound 23, N-(3-(3,4-dihydroisoquinolin-2(1H)-yl)-2-hydroxypropyl)-2-((1-methyl-1H-indazol-6-yl)oxy)acetamide], below 100 nM.
Then `Cc1cccc(OCC(=O)NCC(O)CN2CCc3ccccc3C2)c1` (stereo not shown) [Compound 26], with below 100 nM.
As to `CN(C)c1cccc(OCC(=O)NCC(O)CN2CCc3ccccc3C2)c1` (stereo not shown) [Compound 27], the IC50 is below 100 nM.
In the case of `CS(=O)(=O)Nc1cccc(OCC(=O)NCC(O)CN2CCc3ccccc3C2)c1` (stereo not shown) [Compound 28, N-(3-(3,4-dihydroisoquinolin-2(1H)-yl)-2-hydroxypropyl)-2-(3-(methylsulfonamido)phenoxy)acetamide], the IC50 is below 100 nM.
In the case of `CS(=O)(=O)c1ccccc1OCC(=O)NCC(O)CN1CCc2ccccc2C1` (stereo not shown) [Compound 37, N-(3-(3,4-dihydroisoquinolin-2(1H)-yl)-2-hydroxypropyl)-2-(2-(methylsulfonyl)phenoxy)acetamide] it was below 100 nM; in that of `CN(C)c1ccccc1OCC(=O)NCC(O)CN1CCc2ccccc2C1` (stereo not shown) [Compound 38], below 100 nM; in that of `CC(Oc1cccc2cccnc12)C(=O)NCC(O)CN1CCc2ccccc2C1` (stereo not shown) [Compound 39, N-(3-(3,4-dihydroisoquinolin-2(1H)-yl)-2-hydroxypropyl)-2-(quinolin-8-yloxy)propanamide], below 100 nM.
Then `O=C(COc1ccccc1C1CCCCC1)NCC(O)CN1CCc2ccccc2C1` (stereo not shown) [Compound 40], with below 100 nM; and `CC(C)(Oc1cccc2cccnc12)C(=O)NCC(O)CN1CCc2ccccc2C1` (stereo not shown) [Compound 43, N-(3-(3,4-dihydroisoquinolin-2(1H)-yl)-2-hydroxypropyl)-2-methyl-2-(quinolin-8-yloxy)propanamide], with below 100 nM; and `CS(=O)(=O)c1cccc(OCC(=O)NCC(O)CN2CCc3ccccc3C2)c1` (stereo not shown) [Compound 47], with below 100 nM.
In the case of `O=C(COc1cccc2ccc(N3CCOCC3)nc12)NCC(O)CN1CCc2ccccc2C1` (stereo not shown) [Compound 48, N-(3-(3,4-dihydroisoquinolin-2(1H)-yl)-2-hydroxypropyl)-2-((2-morpholinoquinolin-8-yl)oxy)acetamide], the IC50 was below 100 nM.
Then `O=C(COc1ccccc1N1CCOCC1)NCC(O)CN1CCc2ccccc2C1` (stereo not shown) [Compound 49, N-(3-(3,4-dihydroisoquinolin-2(1H)-yl)-2-hydroxypropyl)-2-(2-morpholinophenoxy)acetamide], with below 100 nM.
Then `O=C(COc1ccccc1-c1cc[nH]n1)NCC(O)CN1CCc2ccccc2C1` (stereo not shown) [Compound 50, 2-(2-(1H-pyrazol-3-yl)phenoxy)-N-(3-(3,4-dihydroisoquinolin-2(1H)-yl)-2-hydroxypropyl)acetamide], with below 100 nM; and `CS(=O)(=O)Nc1ccccc1OCC(=O)NCC(O)CN1CCc2ccccc2C1` (stereo not shown) [Compound 53], with below 100 nM.
Then `O=C(COc1cccc2c1CCCC2)NCC(O)CN1CCc2ccccc2C1` (stereo not shown) [Compound 64], with below 100 nM; and `NS(=O)(=O)c1ccccc1OCC(=O)NCC(O)CN1CCc2ccccc2C1` (stereo not shown) [Compound 65], with below 100 nM; and `O=C(COc1cccc2ccccc12)NCC(O)CN1CCc2ccccc2C1` (stereo not shown) [Compound 66, N-(3-(3,4-dihydroisoquinolin-2(1H)-yl)-2-hydroxypropyl)-2-(naphthalen-1-yloxy)acetamide], with below 100 nM.
For the molecule `O=C(COc1ccccc1-c1cc[nH]n1)NC[C@@H](O)CN1CCc2ccccc2C1` [Compound 67], the IC50 is below 100 nM.
Then `O=C(COc1ccccc1-c1cc[nH]n1)NC[C@H](O)CN1CCc2ccccc2C1` [Compound 68], with below 100 nM; and `C[C@@H](Oc1cccc2cccnc12)C(=O)NC[C@H](O)CN1CCc2ccccc2C1` [Compound 73, (R)—N—((S)-3-(3,4-dihydroisoquinolin-2(1H)-yl)-2-hydroxypropyl)-2-(quinolin-8-yloxy)propanamide], with below 100 nM.
In the case of `C[C@@H](Oc1cccc2cccnc12)C(=O)NC[C@@H](O)CN1CCc2ccccc2C1` [Compound 74] it was below 100 nM.
Turning to `O=C(COc1cccc(CN2CCOCC2)c1)NCC(O)CN1CCc2ccccc2C1` (stereo not shown) [Compound 75], the IC50 was below 100 nM.
Then `C[C@H](Oc1cccc2cccnc12)C(=O)NC[C@H](O)CN1CCc2ccccc2C1` [Compound 76, (S)—N—((S)-3-(3,4-dihydroisoquinolin-2(1H)-yl)-2-hydroxypropyl)-2-(quinolin-8-yloxy)propanamide], with below 100 nM; and `O=C(COc1ccccc1N1CCOCC1)NC[C@H](O)CN1CCc2ccccc2C1` [Compound 77], with below 100 nM.
As for `CN1C(=O)COc2cccc(OCC(=O)NCC(O)CN3CCc4ccccc4C3)c21` (stereo not shown) [Compound 80, N-(3-(3,4-Dihydroisoquinolin-2(1H)-yl)-2-hydroxypropyl)-2-(4-methyl-3-oxo-3,4-dihydro-2H-benzo[b][1,4]oxazin-5-yloxy)acetamide], the IC50 is below 100 nM.
In the case of `CN1CCOc2cccc(OCC(=O)NCC(O)CN3CCc4ccccc4C3)c21` (stereo not shown) [Compound 81] it was below 100 nM; in that of `Cn1ncc2c(OCC(=O)NCC(O)CN3CCc4ccccc4C3)cccc21` (stereo not shown) [Compound 82], below 100 nM.
In the case of `CN1CCN(c2ccccc2OCC(=O)NC[C@H](O)CN2CCc3ccccc3C2)CC1` [Compound 84] it was below 100 nM; in that of `O=C(COc1ccccc1OCCN1CCOCC1)NC[C@H](O)CN1CCc2ccccc2C1` [Compound 86], below 100 nM.
In the case of `CN(C)CCOc1ccccc1OCC(=O)NC[C@H](O)CN1CCc2ccccc2C1` [Compound 88] it was below 100 nM.
Consider `CC(=O)N1CCN(c2ccccc2OCC(=O)NCC(O)CN2CCc3ccccc3C2)CC1` (stereo not shown) [Compound 90], for which the IC50 was below 100 nM.
Then `O=C(COc1cccc2c1CCNC2)NCC(O)CN1CCc2ccccc2C1` (stereo not shown) [Compound 91], with below 100 nM.
In the case of `O=C(COc1cccc2nccnc12)NCC(O)CN1CCc2ccccc2C1` (stereo not shown) [Compound 92] it was below 100 nM; in that of `O=C(COc1cccc(NC2CCOCC2)c1)NCC(O)CN1CCc2ccccc2C1` (stereo not shown) [Compound 93], below 100 nM.
Then `O=C(COc1c(CN2CCOCC2)ccc2cccnc12)NC[C@H](O)CN1CCc2ccccc2C1` [Compound 94], with below 100 nM; and `O=C(COc1ccc2c(cnn2C2CCNC2)c1)NCC(O)CN1CCc2ccccc2C1` (stereo not shown) [Compound 95], with below 100 nM; and `CN1CCC(n2ncc3cc(OCC(=O)NCC(O)CN4CCc5ccccc5C4)ccc32)C1` (stereo not shown) [Compound 96], with below 100 nM.
As for `COc1ccc2cccc(OCC(=O)NC[C@@H](O)CN3CCc4ccccc4C3)c2n1` [Compound 98, (R)—N-(3-(3,4-dihydroisoquinolin-2(1H)-yl)-2-hydroxypropyl)-2-((2-methoxyquinolin-8-yl)oxy)acetamide], the IC50 was below 100 nM.
Then `CN1CCc2c(cccc2OCC(=O)NCC(O)CN2CCc3ccccc3C2)C1` (stereo not shown) [Compound 99], with below 100 nM; and `O=C(COc1cccc2c1OCCO2)NCC(O)CN1CCc2ccccc2C1` (stereo not shown) [Compound 100], with below 100 nM.
Then `CC(=O)N1CCc2c(cccc2OCC(=O)NCC(O)CN2CCc3ccccc3C2)C1` (stereo not shown) [Compound 101], with below 100 nM; and `CS(=O)(=O)N1CCc2c(cccc2OCC(=O)NCC(O)CN2CCc3ccccc3C2)C1` (stereo not shown) [Compound 102, N-(3-(3,4-dihydroisoquinolin-2(1H)-yl)-2-hydroxypropyl)-2-((2-(methylsulfonyl)-1,2,3,4-tetrahydroisoquinolin-5-yl)oxy)acetamide], with below 100 nM.

(Values after patent US9745291B2, “PRMT5 inhibitors containing a dihydro- or tetrahydroisoquinoline and uses thereof” (Epizyme, Inc., priority 2012, dated 2017).)
